Assay results as given in US20060046972A1, “Cytotoxic nucleoside analog compound 003 for treating cancer” (Parker Hughes Institute, priority 2004, published 2006).

Columns and labels:
BT20 cells = assay: Cellular uptake of Compound 003; format: in vitro ADME, human; settings: 50 μM, 1 hr
Source text: Intracellular metabolism of Compound 003 was studied in CEM T-lineage lymphoma cell line, BT20 breast cancer cell line, T98 glioblastoma cell line, and Nalm-6 B-lineage leukemia cell line. CEM and Nalm6 cells were maintained in RPMI supplemented with 10% fetal bovine serum, and 1% penicillin/streptomycin. BT20 and T98 cells w.ere cultured in a medium composed of MEM, 10% fetal bovine serum, 0.1-mM of nonessential amino acids and Earles salts, and 1% penicillin/streptomycin. CEM and Nalm6 cells at a density of 10^6 cells per ml were utilized in the drug metabolism study. BT20 and T98 cells were seeded in 6-cm petri-dishes at 4 million cells and 2 million cells per plate, respectively, the day before the experiment. Either one plate of adherent cells or 10 million non-adherent cells was utilized at each time point. Cells were incubated with various concentrations of the compounds up to 24 hrs at 37° C. After incubation, cells were washed 2 times with ice-cold PBS, and extracted by addition of 0.5-1 ml of 60% methanol. […] With efflux experiments, cells 1×10^6/mL (the same density as in the uptake study) were incubated with 100 μM Compound 003 for 1 hr, washed 2 times with ice-cold PBS, and resuspended with culture medium without drug, and the metabolite efflux from cells to the medium was measured after 6 hr of incubation.

MOLT-3 T-lymphoma cells = assay: Confocal laser scanning microscopy of mitotic spindle, MOLT-3; format: cell-based, human; settings: 100 μM
Description: (§1) Immunofluorenscence was used to examine the spindle features of human cancer cell lines treated with Compound 003 or 0.5% DMSO. Initially, cells at log phase were seeded onto sterile 22 mm coverslips in six -well culture plates. 24 hours later, the cells were treated with compound 003 for 2 hours at 37° C., 5% C02, fixed in methanol (−20° C. 15 min) followed by a 15 minute incubation with PBS +0.1.% Tx-100. The coverslips were incubated with antibodies raised against α-tubulin, γ-tubulin (Sigma Chemical Co., St Louis, Mo.) (40 min 37° C.), washed in PBS-Tx-100, and incubated with an appropriate secondary antibody conjugated to FITC (Jackson ImmunoResearch, Westgrove, Pa.). Cellular DNA was labeled with 5 μM TOTO3 (Molecular Probes, Eugene, Oreg.) for 20 minutes. Coverslips were immediately inverted onto slides in Vectashield (Vector Labs, Burlingame, Calif.) to prevent photobleaching, sealed with nail varnish and stored at −20° C. The slides were examined using a Bio-Rad MRC-1024 Laser Scanning Confocal Microscope equipped with a Kr/Ar laser (BioRad, Hercules, Calif.) mounted on a Nikon Eclipse E800 upright microscope with high numerical aperture objectives (Nikon, Melville, N.Y.). Digital data were processed using Lasersharp (BioRad) and Adobe Photoshop software (Adobe Systems, Mountain View, Calif.). […]

NALM6 cells = assay: Gene profiling, Atlas Human cDNA Expression arrays; format: cell-based
Description: Gene Profiling using the Atlas Human cDNA Expression arrays from Molecular Dynamics was preformed according to the manufacturer's specification, as described below.
Total RNA was prepared from NALM6 cells treated with Compound 003 (5, 50TM, vehicle) using Tripure isolation reagent (Boehringer Mannheim); the reagent is a monophasic solution of phenol and guanidine thiocyanate, followed by Dnase treatment (RQ1 Rnase-Free Dnase, Promega). Total RNA was quantified using standard spectrophotometric methods.
For probe preparation and hybridization, approximately 5 micrograms of total RNA was converted into radioactively labeled cDNA using […] (Amersham) by reverse transcriptase (Clontech). Chroma Spin columns (Clontech) were used to purify labeled cDNA. Atlas cDNA probe was denatured with 1M NaOH/10 mM EDTA and neutralized with 1M NaH2PO4 and C0t-1 DNA at 68° C. Prehybridization solution was discarded and arrays were hybridized overnight. Arrrays were washed 4 times by using 2×SSC/1% SDS and 2 times by using 0.1×SSC/0.5% SDS. Membranes were sealed and exposed to a phosphoscreen (Molecular Dynamics). The expression levels were quantified using 8 bit gray levels using image analysis software (Imagene 4.2, Biodiscovery; Inc).
For the Atlas Human cDNA Expression array, 588 genes were subdivided into these six functional groups: (A) Oncogenes, Tumor suppressors Cell Cycle regulators, (B) Ion channels and transport, Modulators, stress response, (C) Apoptosis, DNA synthesis, repair and recombination, (D) Transcription factors, DNA binding proteins, (E) Receptors, Cell surface antigens, Cell adhesion & (F) Growth factors, cytokines, chemokines, Interleukins, Hormones. The letters correspond to individual quadrants on the array and may be noted as the first letter in each abbreviation in Table 4.
Spots on the macro arrays (5, 50 Tm and control) were analyzed using the spot finder technique in the Imagene software. The integrity and fragmentation: due to saturated pixels, of the spots was assessed and appropriate background measurements were chosen to detect signals. […] All drug treated samples (5, 50TM) were compared to no drug controls using a linear regression method for log2 transformed density readings (Genesight 3.1, Biodiscovery). A piecewise linear regression method (3 bins, minimum of 20 elements per bin) was used normalize density readings across the three arrays to minimize the effect of low expression and saturated signals on the regression. All housekeeping genes were monitored for detection of false positive signals.

[1] = test system: PC-3 prostate cancer cells; assay: Confocal laser scanning microscopy of mitotic spindle, PC-3; format: cell-based, human; settings: 100 μM
Description: as §1

With `COC(=O)C(C)NP(=O)(OCC1OC(n2cc(C)c(=O)[nH]c2=O)CC1N=[N+]=[N-])Oc1ccc(OC)cc1` (stereo not shown) [Compound 003, 3′-azidothymidine 5′-[p-methoxyphenylmethoxyalaninyl phosphate]] the “uptake of Compound 003, BT20 relative to Nalm6 and CEM cells” value (BT20 cells) was “about 2 fold”, the mitotic spindle formation (MOLT-3 T-lymphoma cells) was “induced aberrant multipolar spindle formation” and the “decreased expression of GADD 153 gene” value (NALM6 cells) was roughly 3.5 fold. For the same compound, the “downregulation of c-jun proto-oncogene” value (NALM6 cells) was roughly 2 fold, the “increase in the gene for myeloid cell nuclear differentiation antigen (MNDA)” value (NALM6 cells; 50 μM) was roughly 4 fold and the “increased expression of FAN gene” value (NALM6 cells; 50 μM) was 3 fold. For the same compound, the mitotic spindle formation [1] was “induced aberrant multipolar spindle formation”.
